Reference: the CheMixHub viscosity set
“And” between values parts separate entries of the source, which are not always exact repeats. Equal entries are not always repeated. ± gives the uncertainty stated by the source.

Columns and labels:
[1] = xn = mol fraction of the nth substance listed

Compound: [Cl-].[Cl-].[Cl-].[Cl-].[Sn+4] + O=C(O)C(Cl)(Cl)Cl
- viscosity ([1]; 323.15 K, 101 kPa, x1 = 0.1911): 2.66 ± 0.11 mPa·s
- viscosity ([1]; 323.15 K, 101 kPa, x1 = 0.4139): 1.448 ± 0.061 mPa·s
- viscosity ([1]; 323.15 K, 101 kPa, x1 = 0.667): 0.959 ± 0.04 mPa·s

Compound: O=S=O + Cc1ccccc1
- viscosity ([1]; 298.15 K, 101 kPa, x1 = 0.0185): 0.5449 ± 0.014 mPa·s
- viscosity ([1]; 298.15 K, 101 kPa, x1 = 0.0455): 0.5339 ± 0.014 mPa·s
- viscosity ([1]; 298.15 K, 101 kPa, x1 = 0.104): 0.5121 ± 0.013 mPa·s
- viscosity ([1]; 298.15 K, 101 kPa, x1 = 0.1897): 0.4881 ± 0.013 mPa·s

Compound: O=S=O + ClC(Cl)Cl
- viscosity ([1]; 298.15 K, 101 kPa, x1 = 0.0035): 0.5141 ± 0.013 mPa·s
- viscosity ([1]; 298.15 K, 101 kPa, x1 = 0.004762): 0.5053 ± 0.013 mPa·s
- viscosity ([1]; 298.15 K, 101 kPa, x1 = 0.00539): 0.5022 ± 0.013 mPa·s

Compound: Cc1cc(C)cc(C)c1
- viscosity (293.15 K, 101 kPa): 0.692 ± 0.011 mPa·s and 0.721 ± 0.014 mPa·s
- viscosity (293.15 K, 101.33 kPa): 0.692 ± 0.007 mPa·s
- viscosity (293.15 K, 102 kPa): 0.699 ± 0.021 mPa·s
- viscosity (295.01 K, 101.33 kPa): 0.6861 ± 0.0098 mPa·s
- viscosity (298.15 K, 101 kPa): 0.6025 ± 0.01 mPa·s and 0.6518 ± 0.017 mPa·s
- viscosity (298.15 K, 101.3 kPa): 0.656 ± 0.035 mPa·s and 0.671 ± 0.007 mPa·s
- viscosity (298.15 K, 101.33 kPa): 0.6 ± 0.008 mPa·s and 0.658 ± 0.005 mPa·s
- viscosity (298.38 K, 100 kPa): 0.6595 ± 0.0095 mPa·s
- viscosity (298.38 K, 101.33 kPa): 0.6595 ± 0.0096 mPa·s
- viscosity (302.82 K, 101.33 kPa): 0.6227 ± 0.0091 mPa·s
- viscosity (303 K, 101 kPa): 0.6123 ± 0.0051 mPa·s and 0.6124 ± 0.0051 mPa·s
- viscosity (303.15 K, 101 kPa): 0.633 ± 0.017 mPa·s and 0.612 ± 0.011 mPa·s
- viscosity (303.15 K, 101.3 kPa): 0.616 ± 0.033 mPa·s and 0.624 ± 0.007 mPa·s
- viscosity (303.15 K, 101.33 kPa): 0.564 ± 0.008 mPa·s
- viscosity (303.15 K, 102 kPa): 0.606 ± 0.021 mPa·s
- viscosity (307.35 K, 101.33 kPa): 0.584 ± 0.0099 mPa·s
- viscosity (307.4 K, 101.33 kPa): 0.309 ± 0.003 mPa·s
- viscosity (307.78 K, 101.33 kPa): 0.5879 ± 0.0087 mPa·s
- viscosity (308.15 K, 101.3 kPa): 0.581 ± 0.031 mPa·s and 0.589 ± 0.007 mPa·s
- viscosity (308.15 K, 101.33 kPa): 0.5482 ± 0.0074 mPa·s and 0.585 ± 0.005 mPa·s
- viscosity (308.5 K, 101 kPa): 0.597 ± 0.016 mPa·s
- viscosity (312.69 K, 100 kPa): 0.5561 ± 0.0084 mPa·s
- viscosity (312.69 K, 101.33 kPa): 0.5561 ± 0.0084 mPa·s
- viscosity (313 K, 101 kPa): 0.5482 ± 0.0046 mPa·s and 0.5481 ± 0.0046 mPa·s
- viscosity (313.15 K, 102 kPa): 0.534 ± 0.021 mPa·s
- viscosity (317.53 K, 101.33 kPa): 0.5269 ± 0.0081 mPa·s
- viscosity (318.15 K, 101 kPa): 0.3678 ± 0.11 mPa·s and 0.52 ± 0.011 mPa·s
- viscosity (322.26 K, 101.33 kPa): 0.5017 ± 0.0078 mPa·s
- viscosity (323 K, 101 kPa): 0.491 ± 0.0042 mPa·s and 0.4898 ± 0.0042 mPa·s
- viscosity (323.15 K, 101 kPa): 0.495 ± 0.011 mPa·s
- viscosity (323.15 K, 102 kPa): 0.476 ± 0.021 mPa·s

Compound: Cc1cc(C)cc(C)c1 + Cc1ccccc1
- viscosity ([1]; 298.15 K, 100 kPa, x2 = 0.5): 0.5957 ± 0.0086 mPa·s
- viscosity ([1]; 298.15 K, 101.33 kPa, x2 = 0.5): 0.5957 ± 0.0087 mPa·s
- viscosity ([1]; 298.24 K, 100 kPa, x2 = 0.8): 0.5709 ± 0.0083 mPa·s
- viscosity ([1]; 298.24 K, 101.33 kPa, x2 = 0.8): 0.5709 ± 0.0083 mPa·s
- viscosity ([1]; 303.16 K, 101.33 kPa, x2 = 0.5): 0.5616 ± 0.0083 mPa·s
- viscosity ([1]; 303.18 K, 101.33 kPa, x2 = 0.8): 0.5394 ± 0.008 mPa·s
- viscosity ([1]; 307.82 K, 101.33 kPa, x2 = 0.8): 0.5125 ± 0.0077 mPa·s
- viscosity ([1]; 308.22 K, 101.33 kPa, x2 = 0.5): 0.5315 ± 0.008 mPa·s
- viscosity ([1]; 313.14 K, 100 kPa, x2 = 0.5): 0.505 ± 0.0077 mPa·s
- viscosity ([1]; 313.14 K, 101.33 kPa, x2 = 0.5): 0.505 ± 0.008 mPa·s
- viscosity ([1]; 313.26 K, 100 kPa, x2 = 0.8): 0.4837 ± 0.0074 mPa·s
- viscosity ([1]; 313.26 K, 101.33 kPa, x2 = 0.8): 0.4837 ± 0.0074 mPa·s
- viscosity ([1]; 317.67 K, 101.33 kPa, x2 = 0.8): 0.4619 ± 0.0072 mPa·s
- viscosity ([1]; 318.09 K, 101.33 kPa, x2 = 0.5): 0.4792 ± 0.0074 mPa·s
- viscosity ([1]; 322.66 K, 101.33 kPa, x2 = 0.8): 0.4389 ± 0.0069 mPa·s
- viscosity ([1]; 322.74 K, 101.33 kPa, x2 = 0.5): 0.4583 ± 0.0072 mPa·s
